Blank lines part the entries; values can stand above or below the compound they belong to.
Tested on: 598228-144-R-J1-PDC complex spheroids, viability
Assay: Anticancer human tumor 598228-144-R-J1-PDC patient-derived serous endometrial adenocarcinoma cell line growth inhibition [CLK]
Conditions: for IC50: curve of first compound; for viability, T/C: stronger effect = lower value
How it was run: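 Multi-cell-type spheroids combined patient-derived tumor cells with HUVEC endothelial cells and human mesenchymal stem cells. Paired agents were dosed in half-log steps down from about clinical Cmax, or from 10 microM where Cmax was unknown.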

[1] = second compound 0.0316 µM, first compound 0.0316 µM
[2] = second compound 0.0316 µM, first compound 0.1 µM
[3] = second compound 0.0316 µM, first compound 0.316 µM
[4] = second compound 0.0316 µM, first compound 1 µM
[5] = second compound 0.0316 µM, first compound 3.16 µM
[6] = second compound 0.0316 µM, first compound 10 µM
[7] = second compound 0.1 µM, first compound 0.0316 µM
[8] = second compound 0.1 µM, first compound 0.1 µM
[9] = second compound 0.1 µM, first compound 0.316 µM
[10] = second compound 0.1 µM, first compound 1 µM
[11] = second compound 0.1 µM, first compound 3.16 µM
[12] = second compound 0.1 µM, first compound 10 µM
[13] = second compound 0.316 µM, first compound 0.0316 µM
[14] = second compound 0.316 µM, first compound 0.1 µM
[15] = second compound 0.316 µM, first compound 0.316 µM
[16] = second compound 0.316 µM, first compound 1 µM
[17] = second compound 0.316 µM, first compound 3.16 µM
[18] = second compound 0.316 µM, first compound 10 µM
[19] = second compound 1 µM, first compound 0.0316 µM
[20] = second compound 1 µM, first compound 0.1 µM
[21] = second compound 1 µM, first compound 0.316 µM
[22] = second compound 1 µM, first compound 1 µM
[23] = second compound 1 µM, first compound 3.16 µM
[24] = second compound 1 µM, first compound 10 µM
[25] = second compound 3.16 µM, first compound 0.0316 µM
[26] = second compound 3.16 µM, first compound 0.1 µM
[27] = second compound 3.16 µM, first compound 0.316 µM
[28] = second compound 3.16 µM, first compound 1 µM
[29] = second compound 3.16 µM, first compound 3.16 µM
[30] = second compound 3.16 µM, first compound 10 µM
[31] = second compound 10 µM, first compound 0.0316 µM
[32] = second compound 10 µM, first compound 0.1 µM
[33] = second compound 10 µM, first compound 0.316 µM
[34] = second compound 10 µM, first compound 1 µM
[35] = second compound 10 µM, first compound 3.16 µM
[36] = second compound 10 µM, first compound 10 µM
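Note: spheroids exposed to compounds for seven days before readout.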
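Throughout, for viability, T/C: 100% = DMSO vehicle control wells.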

Structure (SMILES): Nc1ccn(C2OC(CO)C(O)C2(F)F)c(=O)n1 (stereo unspecified) + CN1CCN(c2cc(C(=O)Nc3cc4cc(-c5cnn(C)c5)ccc4cn3)ccn2)CC1
IC50 (second compound 0.0316 µM): < 31.6 nM
IC50 (second compound 0.1 µM): < 31.6 nM
IC50 (second compound 0.316 µM): < 31.6 nM
IC50 (second compound 1 µM): < 31.6 nM
IC50 (second compound 3.16 µM): < 31.6 nM
IC50 (second compound 10 µM): < 31.6 nM
viability, T/C [1]: 42.6%
viability, T/C [2]: 23.5%
viability, T/C [3]: 24.3%
viability, T/C [4]: 21.2%
viability, T/C [5]: 23.4%
viability, T/C [6]: 28.3%
viability, T/C [7]: 46.5%
viability, T/C [8]: 26.8%
viability, T/C [9]: 25.4%
viability, T/C [10]: 28.5%
viability, T/C [11]: 28.5%
viability, T/C [12]: 29.5%
viability, T/C [13]: 18%
viability, T/C [14]: 16.9%
viability, T/C [15]: 14%
viability, T/C [16]: 15.4%
viability, T/C [17]: 17%
viability, T/C [18]: 16.9%
viability, T/C [19]: 3.9%
viability, T/C [20]: 1.1%
viability, T/C [21]: 2.41%
viability, T/C [22]: 1.35%
viability, T/C [23]: 2.84%
viability, T/C [24]: 4.14%
viability, T/C [25]: 1.84%
viability, T/C [26]: 4.4%
viability, T/C [27]: 1.37%
viability, T/C [28]: 1.5%
viability, T/C [29]: 5.71%
viability, T/C [30]: 5.03%
viability, T/C [31]: 0.74%
viability, T/C [32]: 0.77%
viability, T/C [33]: 2.69%
viability, T/C [34]: 0.88%
viability, T/C [35]: 5.39%
viability, T/C [36]: 1.96%

IC50 (second compound 0.0316 µM): > 10000 nM
IC50 (second compound 0.1 µM): > 10000 nM
IC50 (second compound 0.316 µM): > 10000 nM
IC50 (second compound 1 µM): > 10000 nM
IC50 (second compound 3.16 µM): > 10000 nM
IC50 (second compound 10 µM): > 10000 nM
Structure (SMILES): CC(CO)NC(=O)c1cc(-c2ccc(Cl)cc2)nn(-c2cnn(C)c2)c1=O (stereo unspecified) + CNC(=O)c1ccc(Nc2nc(OC3CCCC3)c3c(-c4ccc5nc(C)oc5c4)c[nH]c3n2)c(OC)c1
viability, T/C [1]: 124%
viability, T/C [2]: 102%
viability, T/C [3]: 102%
viability, T/C [4]: 104%
viability, T/C [5]: 92.8%
viability, T/C [6]: 94.4%
viability, T/C [7]: 94.9%
viability, T/C [8]: 107%
viability, T/C [9]: 96.5%
viability, T/C [10]: 103%
viability, T/C [11]: 106%
viability, T/C [12]: 83.8%
viability, T/C [13]: 111%
viability, T/C [14]: 104%
viability, T/C [15]: 92.8%
viability, T/C [16]: 96.5%
viability, T/C [17]: 106%
viability, T/C [18]: 96.8%
viability, T/C [19]: 111%
viability, T/C [20]: 104%
viability, T/C [21]: 112%
viability, T/C [22]: 105%
viability, T/C [23]: 111%
viability, T/C [24]: 87.6%
viability, T/C [25]: 85.7%
viability, T/C [26]: 94.7%
viability, T/C [27]: 92.2%
viability, T/C [28]: 102%
viability, T/C [29]: 94.8%
viability, T/C [30]: 81.4%
viability, T/C [31]: 90.4%
viability, T/C [32]: 77%
viability, T/C [33]: 95.8%
viability, T/C [34]: 77.5%
viability, T/C [35]: 112%
viability, T/C [36]: 83.1%

Structure (SMILES): O=C(c1cc(Cc2n[nH]c(=O)c3ccccc23)ccc1F)N1CCN(C(=O)C2CC2)CC1 + CN1CCN(c2cc(C(=O)Nc3cc4cc(-c5cnn(C)c5)ccc4cn3)ccn2)CC1
IC50 (second compound 0.0316 µM): > 10000 nM
IC50 (second compound 0.1 µM): > 10000 nM
IC50 (second compound 0.316 µM): < 31.6 nM
IC50 (second compound 1 µM): < 31.6 nM
IC50 (second compound 3.16 µM): < 31.6 nM
IC50 (second compound 10 µM): < 31.6 nM
viability, T/C [1]: 123%
viability, T/C [2]: 120%
viability, T/C [3]: 114%
viability, T/C [4]: 118%
viability, T/C [5]: 116%
viability, T/C [6]: 103%
viability, T/C [7]: 130%
viability, T/C [8]: 119%
viability, T/C [9]: 107%
viability, T/C [10]: 126%
viability, T/C [11]: 125%
viability, T/C [12]: 131%
viability, T/C [13]: 16.7%
viability, T/C [14]: 17.2%
viability, T/C [15]: 18.8%
viability, T/C [16]: 14.9%
viability, T/C [17]: 13.7%
viability, T/C [18]: 14.9%
viability, T/C [19]: 1.51%
viability, T/C [20]: 1.3%
viability, T/C [21]: 2.76%
viability, T/C [22]: 1.57%
viability, T/C [23]: 2.8%
viability, T/C [24]: 3.04%
viability, T/C [25]: 1.72%
viability, T/C [26]: 1.59%
viability, T/C [27]: 1.74%
viability, T/C [28]: 2.04%
viability, T/C [29]: 2.75%
viability, T/C [30]: 4.75%
viability, T/C [31]: 0.94%
viability, T/C [32]: 0.9%
viability, T/C [33]: 1.84%
viability, T/C [34]: 1.05%
viability, T/C [35]: 1.89%
viability, T/C [36]: 3.42%

From PubChem BioAssay AID2060614 (Molecular Pharmacology Branch, DTP, NCI, 2025)
